Source: PubChem BioAssay AID1259348 (Broad Institute, 2017)
Activity calls are given as the source filed them.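 How the source made its calls: active means any compound with an IC50 of 100 nM or lower; inactive means the rest.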

Target: Insulin-degrading enzyme (Homo sapiens) (UniProt P14735)
Assay: inhibitors of IDE decapeptide proteolysis, dose response, counter-screen for IDE exo-site inhibitor project, biochemical, kinetic mode (AID 1259348);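 on z-score: purified IDE bound to fluorescein-labelled 6b probe FL-6b at the exo-site; probe displacement lowers polarization so hits show a drop in FP signal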
Conditions: purified human IDE, fluorogenic decapeptide proteolysis; for z-score: measured here: primary FP probe displacement screen, stronger effect = lower value

Insulin-degrading enzyme (Homo sapiens), sequence (P14735 42-1019 limits assumed): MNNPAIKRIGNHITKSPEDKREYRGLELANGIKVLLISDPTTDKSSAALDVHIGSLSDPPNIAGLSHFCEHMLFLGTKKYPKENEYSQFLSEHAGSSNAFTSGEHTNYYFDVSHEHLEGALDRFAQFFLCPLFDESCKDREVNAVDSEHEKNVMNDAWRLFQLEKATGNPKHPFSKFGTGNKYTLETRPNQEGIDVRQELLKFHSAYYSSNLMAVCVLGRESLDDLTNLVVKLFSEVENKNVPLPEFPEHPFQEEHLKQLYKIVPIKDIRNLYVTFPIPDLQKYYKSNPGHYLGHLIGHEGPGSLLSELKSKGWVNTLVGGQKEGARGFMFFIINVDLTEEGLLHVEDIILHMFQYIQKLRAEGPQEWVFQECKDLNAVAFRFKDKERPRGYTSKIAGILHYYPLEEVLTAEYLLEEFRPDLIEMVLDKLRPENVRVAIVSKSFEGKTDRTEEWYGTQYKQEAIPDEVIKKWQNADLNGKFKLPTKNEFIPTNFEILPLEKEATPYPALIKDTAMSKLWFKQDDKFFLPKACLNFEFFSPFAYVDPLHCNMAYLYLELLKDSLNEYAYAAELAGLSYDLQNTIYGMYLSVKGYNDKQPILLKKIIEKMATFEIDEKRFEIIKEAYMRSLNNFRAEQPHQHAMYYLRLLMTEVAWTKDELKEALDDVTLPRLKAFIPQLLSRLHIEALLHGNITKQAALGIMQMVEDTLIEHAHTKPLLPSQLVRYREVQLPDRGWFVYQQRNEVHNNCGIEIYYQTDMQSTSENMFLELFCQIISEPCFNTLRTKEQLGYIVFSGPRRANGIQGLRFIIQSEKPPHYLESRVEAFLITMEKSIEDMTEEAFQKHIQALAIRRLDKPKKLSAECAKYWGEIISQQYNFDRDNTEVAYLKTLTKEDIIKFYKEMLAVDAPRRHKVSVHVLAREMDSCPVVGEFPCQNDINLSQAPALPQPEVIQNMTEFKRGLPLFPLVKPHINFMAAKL

## Cc1ccccc1-c1ccc([C@@H]2[C@H]3CN(C(=O)c4ccncc4)CC(=O)N3[C@H]2CO)cc1
  IC50: 4.2 µM
  z-score: -13.6

## Cc1ccccc1-c1ccc([C@H]2[C@@H](CO)N3CCCCN(S(=O)(=O)c4cn(C)cn4)C[C@H]23)cc1
  IC50: 2.2 µM
  z-score: -16.6

## CCS(=O)(=O)N1CCCCN2[C@@H](CO)[C@@H](c3ccc(C#Cc4ccccc4OC)cc3)[C@@H]2C1
  IC50: 1.8 µM
  z-score: -19.7

## CCS(=O)(=O)N1CCCCN2[C@H](CO)[C@@H](c3ccc(-c4ccccc4C)cc3)[C@@H]2C1
  IC50: 0.41 µM
  z-score: -18.3

## Cc1ccccc1-c1ccc([C@H]2[C@@H](CO)N3CCCCN(C(=O)Nc4ccccc4)C[C@@H]23)cc1
  IC50: 2.9 µM
  z-score: -1.37

## Cc1cccc(-c2ccc([C@H]3[C@@H](CO)N4CCCCN(C(=O)c5cccnc5)C[C@H]34)cc2)c1
  IC50: 3.4 µM
  z-score: -17

## Cc1ccccc1-c1ccc([C@H]2[C@H](CO)N3CCCCN(CC4CC4)C[C@@H]23)cc1
  IC50: 30 µM
  z-score: -2.04

## CCCNC(=O)N1CC(=O)N2[C@@H](CO)[C@@H](c3ccc(C#Cc4cccc(OC)c4)cc3)[C@@H]2C1
  IC50: 11 µM
  z-score: -1.33

## O=C(C1CCOCC1)N1CC(=O)N2[C@H](CO)[C@H](c3ccc(C#Cc4cccc(F)c4)cc3)[C@H]2C1
  IC50: 5.3 µM
  z-score: -19.3

## Cc1ccccc1-c1ccc([C@H]2[C@H](CO)N3C(=O)CN(C(=O)c4ccc(F)cc4)C[C@@H]23)cc1
  IC50: 3 µM
  z-score: -16.5

## Cc1ccccc1-c1ccc([C@H]2[C@@H](CO)N3CCCCN(C(=O)CN4CCOCC4)C[C@@H]23)cc1
  IC50: 25 µM
  z-score: 0.13

## COc1ccccc1-c1ccc([C@H]2[C@@H](CO)N3CCCCN(C(=O)NC4CCCC4)C[C@H]23)cc1
  IC50: 2.6 µM
  z-score: -19.1

## Cc1ccccc1-c1ccc([C@H]2[C@@H](CO)N3C(=O)CN(C(=O)Nc4ccc(F)cc4)C[C@H]23)cc1
  IC50: 0.47 µM
  z-score: -21.3

## CO[C@@H]1CN(C)C(=O)c2cc(NC(=O)c3ccc(Oc4ccccc4)cc3)ccc2OC[C@@H](C)NC[C@H]1C
  IC50: 2.5 µM
  z-score: -13.5

## Cc1ccccc1-c1ccc([C@@H]2[C@@H](CO)N3CCCCN(S(C)(=O)=O)C[C@@H]23)cc1
  IC50: 1.3 µM
  z-score: -17.9

## Cc1ccccc1-c1ccc([C@H]2[C@@H](CO)N3CCCCN(S(C)(=O)=O)C[C@@H]23)cc1
  IC50: > 100 µM (inactive)
  z-score: -2.31

## Cc1cccc(-c2ccc([C@@H]3[C@@H](CO)N4CCCCN(Cc5cncnc5)C[C@@H]34)cc2)c1
  IC50: 11.9 µM
  z-score: -6.65

## Cc1ccccc1-c1ccc([C@H]2[C@H](CO)N3C(=O)CN(C(=O)NC4CCCC4)C[C@@H]23)cc1
  IC50: 0.37 µM
  z-score: -20.8

## Cc1cccc(-c2ccc([C@@H]3[C@@H](CO)N4C(=O)CN(C(=O)Cc5ccccn5)C[C@@H]34)cc2)c1
  IC50: 3.3 µM
  z-score: -11.8

## Cc1ccccc1-c1ccc([C@H]2[C@@H](CO)N3CCCCN(S(=O)(=O)Cc4ccccc4)C[C@@H]23)cc1
  IC50: 44 µM
  z-score: -1.65

## Cc1cccc(-c2ccc([C@@H]3[C@@H](CO)N4CCCCN(CCC(F)(F)F)C[C@@H]34)cc2)c1
  IC50: 71.5 µM
  z-score: -0.68

## Cc1ccccc1-c1ccc([C@H]2[C@@H](CO)N3CCCCN(C(=O)c4cccnc4)C[C@H]23)cc1
  IC50: 3.1 µM
  z-score: -16.5

## Cc1ccccc1-c1ccc([C@@H]2[C@@H](CO)N3CCCCN(C(=O)Cc4ccccn4)C[C@@H]23)cc1
  IC50: 11.5 µM
  z-score: -9.54

## O=C(NC1CCCC1)N1CC(=O)N2[C@H](CO)[C@@H](c3ccc(-c4cccnc4)cc3)[C@@H]2C1
  IC50: 14 µM
  z-score: -12.2

## CCC(=O)N1[C@H](CO)[C@H](c2ccc(-c3ccccc3OC)cc2)[C@@H]1CNC(C)=O
  IC50: 5.8 µM
  z-score: -15

## Cc1ccccc1-c1ccc(C2[C@@H]3CN(C(=O)C4CCCCC4)C[C@H]2N3)cc1 (some centres not stated)
  IC50: 1.5 µM
  z-score: -13.9

## COc1ccccc1-c1ccc([C@H]2[C@@H](CO)N[C@@H]2CNC(=O)C2CCCC2)cc1
  IC50: 5.1 µM
  z-score: -10.9

## COc1ccccc1-c1ccc([C@@H]2[C@@H](C#N)N(C(=O)c3cccnc3)[C@@H]2CO)cc1
  IC50: 1.2 µM
  z-score: -33.8

## CO[C@@H]1CN(C)C(=O)c2cc(NC(=O)c3ccc(Oc4ccccc4)cc3)ccc2OC[C@@H](C)NC[C@@H]1C
  IC50: 2.4 µM
  z-score: -11.5

## Cc1cccc(-c2ccc([C@@H]3[C@H]4CN(C(=O)c5ccncc5)CCCCN4[C@H]3CO)cc2)c1
  IC50: 4.9 µM
  z-score: -17

## Cc1ccccc1-c1ccc(C2[C@@H]3CN(C(=O)c4cnccn4)C[C@H]2N3)cc1 (some centres not stated)
  IC50: 2 µM
  z-score: -20

## COc1cccc(-c2ccc([C@@H]3[C@@H](CO)N4CCCCN(CC5CCOCC5)C[C@@H]34)cc2)c1
  IC50: 30 µM

## CO[C@H]1CN(C)C(=O)c2cc(NC(=O)c3ccc(Oc4ccccc4)cc3)ccc2OC[C@@H](C)NC[C@@H]1C
  IC50: 2.9 µM
  z-score: -13.2

## CC(C)NC(=O)N1CCCCN2[C@@H](CO)[C@H](c3ccc(C#Cc4ccccc4F)cc3)[C@@H]2C1
  IC50: 1.2 µM
  z-score: -12.7
